Entries after “also recorded” stand apart in the source; their conditions may differ.
Key:
[1] = system: Herpes simplex virus type-1; assay: Inhibition of cytopathic effects (CPE), Herpes Simplex Virus Type 1; format: cell-based, HSV-1 KOS strain (in Buffalo Green Monkey Kidney cells); settings: 100 μM, 48 hr
Protocol: (§1) The first assay is for inhibition of cytopathic effects (CPE) caused by viral infection of the cells and the second is a standard viral yield reduction assay. This yield reduction assay is a modification of the general method described by Erlich et al., Ann. NY Acad. Sci. 130, 5-16 (1965).
(§2) 1. Buffalo Green Monkey Kidney cells, obtained from Dr. G. Sedmak, City of Milwaukee, Public Health Department Virology Laboratory, are plated at a density of 7×10^4 cells per well in a standard flat bottom 96 well cell culture plate. The cells are contained in a volume of 200 μl Dulbecco's Modified Eagles Medium (DMEM) containing 10% serum [1:1 mixture of fetal bovine serum and defined supplemented calf serum (Hyclone, Inc., Ogden, Utah), 10 mM HEPES buffer (pH 7.2), 100 U/ml penicillin and 100 μg/ml streptomycin sulfate]. HEPES and antibiotics are obtained from Sigma Chemical Co. (St. Louis, Mo.). Two wells are plated for each of the following samples: compound CPR-2001, cell control (cells only), virus control (cells infected but not treated), vehicle control (solvent for compound, 9:1 dimethylsulfoxide:ethanol), and cell counts.
2. […]
9. At the end of 48 hr, each well is scored for the presence of CPE as indicated by rounding and/or detachment of the cells from the plate. […]

[2] = system: Buffalo Green Monkey Kidney cells; assay: Toxicity to uninfected cells (rounding and/or detachment, 24 hr); format: cell-based; design: key to Toxicity 24 hr: Not toxic
Protocol: as §2
(§3) 2. The cultures are incubated at 37° C. with 5% CO2 until a monolayer of cells is formed on the bottom of each well (usually overnight).
(§4) 3. The media is removed from the wells by aspiration. The cells are refed with media containing the desired concentration of test compound CPR-2001 (100 μM final concentration), media only (cell control and virus control samples), or solvent (9:1, DMSO:ethanol) at a final concentration of 0.33%. Compound CPR-2001 is dissolved at a stock concentration of 30 mM and diluted 300-fold. The cell count wells receive media only.
(§5) 4. The cultures are incubated for 24 hr at 37° C. with 5% CO2.
5. At the end of 24 hr, each well is scored for the presence of toxicity (cells exposed to compound but not infected) as indicated by rounding and/or detachment of the cells from the plate. Scoring is as follows: 1+, 25% of cells rounded; 2+, 25 to 50% of cells rounded; 3+, 75% of cells rounded; 4+, 100% of cells rounded.

[3] = system: Herpes simplex virus type-1; assay: Viral yield reduction assay, Herpes Simplex Virus Type 1; format: cell-based, HSV-1 KOS strain (in Buffalo Green Monkey Kidney cells)
Protocol: as §1, §2, §3, §4, §5
7. […]
10. After scoring for viral CPE, the yield of infectious virus in each well is measured by standard plaque assay on Vero cells (ATCC #CCL81). […] Excess stain is rinsed from the cells, the number of plaques are counted and the yield of virus in the original sample is calculated.

[4] = Electron microscopy of liposomes; format: physicochemical
Protocol: (§6) Five micromoles of CPR-2001 are dissolved in about 1 ml. of chloroform. The solution is transferred to a 16×120 mm screw-capped tube. The tube is placed, uncapped, inside a 1×8 inch boiling tube with B24/40 standard glass fitting. Inside the boiling tube, in the space between the boiling tube and the smaller screw-capped tube, there is a small amount of distilled water to aid thermal contact between the inner and outer tube. The boiling tube is placed on a rotary evaporator under reduced pressure to evaporate the chloroform and leave the lipid as a thin film in the lower portion of the screw-capped tube. The boiling tube is partly immersed in a water bath at 37° C. during the evaporation to aid the process.
Once a thin film has been formed, the screw-capped tube is removed from the boiling tube, and one ml. of aqueous solution is added to it. The tube is capped and immersed in a water bath at 75° C. to aid swelling of the lipid. Swelling of the film is observed to occur when the film becomes cloudy, and is, with agitation, dislodged from the walls of the tube to give a cloudy suspension in the aqueous medium. This suspension is found to consist of liposomes by the application of two techniques. First, laser-light scattering, or QELS, reveal the presence of particles of 658 nm in diameter in one determination, 1468 nm in another. […]

RAW 264.7 cells = assay: Chemiluminescence (CL) assay, inhibition of macrophage activation by PMA; settings: for anti-inflammatory activity (in words): 1 to 30 μM; for inhibition at 1 µM / inhibition at 3 µM / inhibition at 10 µM / inhibition at 30 µM: Mus musculus, RAW264.7, read-out: % inhibition of macrophage activation by PMA
Poliovirus Type III [5] = format: cell-based; settings: 100 μM, 48 hr
[6] = Anti-PAF activity in anesthetized guinea pigs (total pulmonary resistance); format: in vivo; settings: for TPR after PAF, % of Controls: PAF controls 183.36; for PAF antagonist activity / TPR (in words): 1, 3, 10, 30 and 50 μM per kg
Poliovirus Type III [7] = format: cell-based; settings: 100 μM, 48 hr; remark: listed apart in the source
[8] = Liposome particle size by laser-light scattering (QELS); format: physicochemical; settings: 10 micromoles
Text: as §6, with “Five micromoles of CPR-2001 are dissolved in about 1 ml. of chloroform.” left out
Once a thin film has been formed, the screw-capped tube is removed from the boiling tube, and one ml. of aqueous solution is added to it. The tube is capped and immersed in a water bath at 75° C. to aid swelling of the lipid. Swelling of the film is observed to occur when the film becomes cloudy, and is, with agitation, dislodged from the walls of the tube to give a cloudy suspension in the aqueous medium. This suspension is found to consist of liposomes by the application of two techniques. First, laser-light scattering, or QELS, reveal the presence of particles of 658 nm in diameter in one determination, 1468 nm in another.
In a second preparation, 10 micromoles of CPR 2001 are taken through the identical procedure described above. […]

Cryptococcus neoformans = assay: Antifungal assay, Cryptococcus neoformans; format: cell-based
Protocol: (§7) 1. 10^4 Cells (either C. albicans or C. neoformans) are placed in wells of a 96-well plate within a total volume of 90 μl. Cells are grown in RPMI-1640 plus 10% FCS.
(§8) 2. Add 10 μl of control or drug to be evaluated (CPR-2001):
(§9) Fungizone (2.5 μg/ml and 5.0 μg/ml); and
(§10) 3. Incubate for 48 hours at 37° C.
(§11) 5. Plate onto Sabourand plates and incubate overnight at 37° C.; and
(§12) 6. Count and record colonies.
(§13) All samples are tested in duplicate in two separate experiments. The data are then averaged to obtain the following results in Table 2.

Candida albicans = assay: Antifungal assay, Candida albicans; format: cell-based
Protocol: as §7, §8, §9, §10, §11, §12, §13

[9] = increasing concentration, 1 to 100 μg/ml

Cc1c(C)c2c(c(C)c1OP(=O)([O-])OCC[N+](C)(C)C)CCC(C)(CCCC(C)CCCC(C)CCCC(C)C)O2 (stereo not drawn) [CPR-2001, α-tocopherolphosphocholine]
Viral CPE [1]: 1+ (<25% of cells rounded)
development of viral cytopathic effect (in words) [1]: markedly inhibits the development of viral cytopathic effect
Toxicity ([2]; Table 1A, 100 μM, 24 hr): N-±
Toxicity 24 hr ([2]; Table 1B, 100 μM, 24 hr): N
Toxicity (in words) ([2]; at antivirally effective levels): No apparent cytotoxicity; also recorded: not toxic
Virus Yields (48 Hours) ([3]; 100 μM): 5.5 × 10^4 PFU/ml
Reduction of virus yield (fold reduction) ([3]; 100 μM, 48 hr, compared to virus and vehicle control): 18 fold
activity at 100 µM ([3]; Human alphaherpesvirus 1, BGMK, in Chlorocebus sabaeus, 48 hr, virus control 1.00, read-out: Virus Yields (48 Hours), Yield): 5.5%
structure of particles by electron microscopy ([4]; 5 micromoles, not sonicated): characteristic concentric lamellar structure of liposomes
structure of particles by electron microscopy ([4]; 10 micromoles, after sonication): still multilamellar, but smaller
anti-inflammatory activity (in words) (RAW 264.7 cells): marked dose-related anti-inflammatory activity
anti-inflammatory activity (in words) (RAW 264.7 cells; listed as CPR2001): antiinflammatory activity markedly increases
inhibition at 1 µM (RAW 264.7 cells): 5%
inhibition at 3 µM (RAW 264.7 cells): 13%
inhibition at 10 µM (RAW 264.7 cells): 31%
inhibition at 30 µM (RAW 264.7 cells): 56%
Titer (Poliovirus Type III [5]): 2.7 × 10^6 pfu/ml
Fold-Reduction of virus yield (Poliovirus Type III [5]; compared to virus control): 10.7 fold
TPR after PAF, % of Controls ([6]; 1 μM/kg i.v.): 193.75 % of Controls
TPR after PAF, % of Controls ([6]; 3 μM/kg i.v.): 124.58 % of Controls
TPR after PAF, % of Controls ([6]; 10 μM/kg i.v.): 98.19 % of Controls
TPR after PAF, % of Controls ([6]; 30 μM/kg i.v.): 19.60 % of Controls
TPR after PAF, % of Controls ([6]; 50 μM/kg i.v.): 8.33 % of Controls
PAF antagonist activity / TPR (in words) [6]: Decreases of TPR in a dose-related way
PAF antagonist activity / TPR (in words) ([6]; listed as α-tocopherolphosphocholine): marked PAF antagonist activity
CPE (Poliovirus Type III [7]): 2+ (25 to 50% of cells rounded)
development of viral CPE (in words) (Poliovirus Type III [7]): inhibits the development of viral CPE
particle size of liposomes (QELS) ([8]; after about 10 minutes sonication at 75° C.): 102 nm
particle size of liposomes (QELS) ([8]; before sonication): greater than 5,000 nm
inhibition at 1 µg/mL (Cryptococcus neoformans; Cryptococcus neoformans, 1 mcg/ml, 48 hours): 10%
inhibition at 10 µg/mL (Cryptococcus neoformans; Cryptococcus neoformans, 10 mcg/ml, 48 hours): 40%
inhibition at 100 µg/mL (Cryptococcus neoformans; Cryptococcus neoformans, 100 mcg/ml, 48 hours): 73%
percent of fungal inhibition (in words) (Cryptococcus neoformans; [9]): the percent of fungal inhibition also increases
inhibition at 1 µg/mL (Candida albicans; Candida albicans, 1 mcg/ml, 48 hours): 25%
inhibition at 10 µg/mL (Candida albicans; Candida albicans, 10 mcg/ml, 48 hours): 40%
inhibition at 100 µg/mL (Candida albicans; Candida albicans, 100 mcg/ml, 48 hours): 76%
percent of fungal inhibition (in words) (Candida albicans; [9]): the percent of fungal inhibition also increases

Cc1c(C)c2c(c(C)c1O)CCC(C)(CCCC(C)CCCC(C)CCCC(C)C)O2 (stereo not drawn) [α-Tocopherol, α-tocopherol]
inhibition at 1 µM (RAW 264.7 cells): -3%
inhibition at 3 µM (RAW 264.7 cells): -6%
inhibition at 10 µM (RAW 264.7 cells): -6%
inhibition at 30 µM (RAW 264.7 cells): -14%

CC1=C(/C=C/C(C)=C/C=C/C(C)=C/C(=O)O)C(C)(C)CCC1 [Retinoic Acid, retinoic acid]
inhibition at 1 µM (RAW 264.7 cells): 2%
inhibition at 3 µM (RAW 264.7 cells): 6%
inhibition at 10 µM (RAW 264.7 cells): 3%
inhibition at 30 µM (RAW 264.7 cells): 6%
